Measurements from ChEMBL document CHEMBL4616640, “Discovery of novel pyrrole derivatives as potent agonists for the niacin receptor GPR109A” (Bioorg Med Chem Lett, 2020).

Test: AUC (0 to 7 hrs) in rat at 10 mg/kg, po
Type: ADME, organism-based
Design: dose 10 mg/kg, time < 7 hr, route oral
Settings: in vivo

AUC(0-t) at 7 h: 630 ng·h/mL
SMILES: CCCCn1cc(NC(=O)CCc2nc(-c3ccc(O)cn3)no2)c(C(=O)O)c1
